{"source": "patent US8741803B2", "about": "“Pesticidal composition and method for controlling pest” (Kumiai Chemical Industry Co., Ltd., priority 2007, dated 2014)", "key": {"two-spotted spider mites [1]": {"system": "two-spotted spider mites", "assay": "Test Example 1: miticidal test on two-spotted spider mites (compound 6, flubendiamide and their mixture; soybean seedling dipping, 13 days)", "format": "in vivo, Tetranychus urticae", "settings": "Flubendiamide alone, 50.0 ppm, 25° C.", "description": "(§1) Each of the compound 6, flubendiamide, and a mixture of the compound 6 and flubendiamide was formulated into a wettable powder in accordance with Formulation Example 2. The respective formulations were diluted with water to an active ingredient concentration as identified in Table 15, and to the respective solutions, a spreader (KUMITEN manufactured by Kumiai Chemical Industry Co., Ltd.) was added at a concentration of 0.05% of the entire amount. Soybean seedlings which had been inoculated with imago two-spotted spider mites were dipped in each of the resulting solutions and dried in air. The seedlings were placed in a thermostatic chamber at 25° C. for 13 days, and the mite survivors were counted for calculation of the miticidal value by using Equation 2. The test was carried out by one series system. The predictive value in the Table was calculated based on the Colby formula (S. R. Colby (Weeds 15 (1967), 20-22) of Equation 1.\n(§2) [formula] wherein X, Y and E are the following values.\n(§3) X: The miticidal value of the component A at a predetermined concentration.\n(§4) Y: The miticidal value of the component B at a predetermined concentration.\nE: Predictive value (theoretical expected value) of the component A and the component B in combination at the respective predetermined concentrations. […]"}, "cotton aphid": {"system": "cotton aphid", "assay": "Test Example 3: insecticidal test on cotton aphid (compound 6, pyridalyl and their mixture; root zone irrigation of cucumber seedlings, 3 days)", "format": "in vivo, Aphis qossypii", "settings": "Pyridalyl alone, 100.0 ppm, 25° C.", "description": "as §2\n(§5) When the practical miticidal value of the insecticide exceeds E (predictive value), a synergistic effect is obtained.\nEach of the compound 6, pyridalyl, and a mixture of the compound 6 and pyridalyl was formulated into a wettable powder in accordance with Formulation Example 2. The respective formulations were diluted with water to an active ingredient concentration as identified in Table 17, and to the respective solutions, a spreader (KUMITEN manufactured by Kumiai Chemical Industry Co., Ltd.) was added at a concentration of 0.05% of the entire amount. The root zone of cucumber seedlings which had been inoculated with larvae of cotton aphid were irrigated with 5 mL of each of the solutions. The treated seedlings were placed in a thermostatic chamber at 25° C. for 3 days, and the survivors were counted for calculation of the insecticidal degree by Equation 3. The test was carried out by two series system. The predictive value in the Table was calculated based on the Colby formula of Equation 1."}, "two-spotted spider mites [2]": {"system": "two-spotted spider mites", "assay": "Test Example 2: miticidal test on two-spotted spider mites (compound 6, tebufenozide and their mixture; soybean seedling dipping, 13 days)", "format": "in vivo, Tetranychus urticae", "settings": "Tebufenozide alone, 100.0 ppm, 25° C.", "excerpt": "as §2, §3, §4\nE: Predictive value (theoretical expected value) of the component A and the component B in combination at the respective predetermined concentrations.\nas §5\nas §1, with “tebufenozide,” for “flubendiamide,”, “tebufenozide” for “flubendiamide”, “16,” for “15,”, “theoretical” for “predictive”, “formula” for “formula (S. R. Colby (Weeds 15 (1967), 20-22)”"}}, "data": [{"smiles": "Cc1cc(C(F)(C(F)(F)F)C(F)(F)F)ccc1NC(=O)c1cccc(I)c1C(=O)NC(C)(C)CS(C)(=O)=O", "note": "[flubendiamide]", "values": [{"measurement": "Miticidal value", "setting": "two-spotted spider mites [1]", "value": 13}]}, {"smiles": "FC(F)(F)c1ccc(OCCCOc2c(Cl)cc(OCC=C(Cl)Cl)cc2Cl)nc1", "note": "[pyridalyl]", "values": [{"measurement": "Insecticidal degree", "setting": "cotton aphid", "value": 10}]}, {"smiles": "CCc1ccc(C(=O)NN(C(=O)c2cc(C)cc(C)c2)C(C)(C)C)cc1", "note": "[tebufenozide]", "values": [{"measurement": "Miticidal value", "setting": "two-spotted spider mites [2]", "value": 3}]}]}
